The results in this text go back to patent US20260167656A1, “PHOSPHORAMIDATE COMPOUNDS AND USES THEREOF” (ALLORION THERAPEUTICS INC, priority 2022, published 2026).

Structures are written as SMILES. Some results are limits rather than exact numbers.

In test [1] the test system is non-small cell lung cancer cell line H460. The experiment in a line: H460 proliferation assay in the presence of 3 uM ASP9521 (AKR1C3 specific inhibitor). The conditions noted are these: H460 cells, CellTiter-Glo, 72 hours, in the presence of 3 uM ASP9521 added 4 hours prior to compounds; read-out: CTG H460: Avg IC50 (nM) [Assay Condition: ASP9521]. Format: cell-based, human. In short, it runs like this:
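AKR1C3 blocked with 3 uM ASP9521 given 4 h ahead of test compounds. H460 cells, plated 24 h earlier, were then treated for 72 h at 37 °C in 5% CO2. CellTiter-Glo luminescence gave viability.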
(In ATP-based viability assays light output follows the ATP content of the culture.)

Test [2] has the same test system. The experiment in a line: In vitro human cancer cell line cytotoxicity (proliferation) assay in H460, CellTiter-Glo, 72 hours. In kind it is cell-based. As to conditions: H460 cells, DMSO condition (no AKR1C3 inhibitor), read-out: CTG H460: Avg IC50 (nM) [Assay Condition: DMSO]. In short, it runs like this:
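IC50s in nM come from CellTiter-Glo viability read after 72 h of compound exposure. Compounds went in from 10 mM DMSO stocks onto H460 cells, which had been plated at 3×10^3 per well and grown 24 h beforehand at 37 °C, 5% CO2.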

Usually IC50 stands for the concentration needed to halve the response being measured. Turning to `O=C1c2cc(Oc3c([N+](=O)[O-])ccc4c3OCCC4OP(=O)(N3CC3)N3CC3)ccc2CN1C1CC1` (single isomer, unassigned) [Example 139], the IC50 in test [1] was 839 nM; in test [2], under 10 nM.

Turning to `Cn1cc(-c2ccc(Oc3c([N+](=O)[O-])ccc4c3CCC4OP(=O)(N3CC3)N3CC3)cc2)ccc1=O` (stereo not shown) [Example 61], the 50% inhibitory concentration (IC50) in test [1] was 1010 nM; in test [2] it was 10 to 50 nM.

Regarding `O=[N+]([O-])c1ccc2c(c1Oc1cccc(-c3ccnn3CCO)c1)CC[C@@H]2OP(=O)(N1CC1)N1CC1` [Example 351], the IC50 in test [1] was 1570 nM; in test [2] (Homo sapiens, NCI-H460, 72 h), under 10 nM.

For `Cc1coc(-c2cccc(Oc3c([N+](=O)[O-])ccc4c3CC[C@@H]4OP(=O)(N3CC3)N3CC3)c2)n1` [Example 361], the IC50 in test [1] was 3910 nM; in test [2] (Homo sapiens, NCI-H460, 72 h) it was 10 to 50 nM.

On to `O=C1CCCN1c1cccc(Oc2c([N+](=O)[O-])ccc3c2CCC3OP(=O)(N2CC2)N2CC2)c1` (stereo not shown) [Example 112], for which the concentration for half-maximal inhibition (IC50) in test [1] was 243 nM; in test [2], under 10 nM.

With `CC(OP(=O)(N1CC1)N1CC1)c1cc2cc(Oc3cccc(C(=O)N(C)C)c3)c([N+](=O)[O-])cc2o1` (single isomer, unassigned) [Example 233], the values for the 50% inhibitory concentration (IC50) in test [1] and in test [2] were 3890 nM and under 10 nM, respectively.

Consider `CC(C)c1cc(Oc2c([N+](=O)[O-])ccc3c2CCC3OP(=O)(N2CC2)N2CC2)ccc1F` (stereo not shown) [Example 332], for which the IC50 was 1960 nM in test [1] and under 10 nM in test [2].

Regarding `O=[N+]([O-])c1ccc2c(c1Oc1ccc(-c3ccc(F)cc3)cc1)CCC2OP(=O)(N1CC1)N1CC1` (stereo not shown) [Example 22], the half-maximal inhibitory concentration (IC50) was 1640 nM in test [1] and 10 to 50 nM in test [2].

Consider `Cn1cccc(-c2ccc(Oc3c([N+](=O)[O-])ccc4c3CC[C@H]4OP(=O)(N3CC3)N3CC3)cc2)c1=O` [Example 271], for which the IC50 was 920 nM in test [1] and under 10 nM in test [2].

Regarding `O=[N+]([O-])c1ccc2c(c1Oc1ccc3nccn3c1)CC[C@H]2OP(=O)(N1CC1)N1CC1` [Example 383], the IC50 in test [1] was 4240 nM; in test [2] (Homo sapiens, NCI-H460, 72 h), 10 to 50 nM.

As to `O=[N+]([O-])c1ccc2c(c1Oc1ccc(-c3ccc(F)cn3)c(F)c1)CCC2OP(=O)(N1CC1)N1CC1` (stereo not shown) [Example 29], the IC50 in test [1] is 1220 nM; in test [2] (Homo sapiens, NCI-H460, 72 h), under 10 nM.

On to `O=[N+]([O-])c1ccc2c(c1Oc1ccc(F)c(-c3ccccn3)c1)CCC2OP(=O)(N1CC1)N1CC1` (stereo not shown) [Example 336], for which the IC50 in test [1] was 1680 nM; in test [2], under 10 nM.

For the compound `O=[N+]([O-])c1ccc2c(c1Oc1cccc(C3CC3)c1)CCC2OP(=O)(N1CC1)N1CC1` (stereo not shown) [Example 317], the concentration for half-maximal inhibition (IC50) in test [1] is 1010 nM; in test [2] it was under 10 nM.

Turning to `CSc1ccc(Oc2c([N+](=O)[O-])ccc3c2CCC3OP(=O)(N2CC2)N2CC2)cc1` (stereo not shown) [Example 505], the figures for the half-inhibitory concentration (IC50) in test [1] and in test [2] were 327 nM and under 10 nM, respectively.

Turning to `O=[N+]([O-])c1ccc2c(c1Oc1cncc(OC3CC3)c1)CC[C@@H]2OP(=O)(N1CC1)N1CC1` [Example 471], the values for the IC50 in test [1] and in test [2] were 3060 nM and under 10 nM, respectively.

Take `CN1Cc2ccc(Oc3c([N+](=O)[O-])ccc4c3CCC4OP(=O)(N3CC3)N3CC3)cc2C1=O` (stereo not shown) [Example 24]: the half-inhibitory concentration (IC50) in test [1] was 916 nM; in test [2], under 10 nM.

As for `CC(OP(=O)(N1CC1)N1CC1)c1cc2cc(Oc3cccc(C(=O)N4CCOCC4)c3)c([N+](=O)[O-])cc2o1` (stereo not shown) [Example 544], the IC50 was 3490 nM in test [1] and 10 to 50 nM in test [2].

For the compound `CC(OP(=O)(N1CC1)N1CC1)c1ccc([N+](=O)[O-])c(Cn2ccc(=O)cc2)c1` (stereo not shown) [Example 4], the IC50 in test [1] is over 10000 nM; in test [2] (Homo sapiens, NCI-H460, 72 h) it was at least 100 nM.

For the compound `C[C@@H]1CN1P(=O)(COc1c(F)c(F)c(OCc2ccc([N+](=O)[O-])c(Oc3ccc(C(=O)N(C)C)cc3)c2)c(F)c1F)N1C[C@H]1C` (stereo partly shown) [Example 15], the IC50 in test [1] was 947 nM; in test [2] (Homo sapiens, NCI-H460, 72 h), under 10 nM.

Take `O=[N+]([O-])c1ccc2c(c1Oc1cccc(-n3ccc(F)n3)c1)CC[C@@H]2OP(=O)(N1CC1)N1CC1` [Example 444]: the 50% inhibitory concentration (IC50) in test [1] was 192 nM; in test [2] (Homo sapiens, NCI-H460, 72 h), under 10 nM.

In the case of `Cn1cc(Oc2cc(Oc3c([N+](=O)[O-])ccc4c3CC[C@@H]4OP(=O)(N3CC3)N3CC3)ccc2F)cn1` [Example 497], the IC50 is 1010 nM in test [1] and under 10 nM in test [2] (Homo sapiens, NCI-H460, 72 h).

Regarding `Cn1cc(-c2ccc(Oc3cc4c(cc3[N+](=O)[O-])CCC4OP(=O)(N3CC3)N3CC3)cc2)ccc1=O` (stereo not shown) [Example 178], the 50% inhibitory concentration (IC50) in test [1] was 1630 nM; in test [2] (Homo sapiens, NCI-H460, 72 h), at least 100 nM.

Consider `COc1ccn(Cc2cc(C(C)OP(=O)(N3CC3)N3CC3)ccc2[N+](=O)[O-])c(=O)c1` (single isomer, unassigned) [Example 2], for which the half-inhibitory concentration (IC50) in test [1] was over 10000 nM; in test [2] (Homo sapiens, NCI-H460, 72 h), at least 100 nM.

Take `Cn1cc(-c2cccc(Oc3c([N+](=O)[O-])ccc4c3CCC4OP(=O)(N3CC3)N3CC3)c2)cn1` (single isomer, unassigned) [Example 76]: the IC50 in test [1] was 1120 nM; in test [2] (Homo sapiens, NCI-H460, 72 h), 10 to 50 nM.

On to `O=[N+]([O-])c1cc2c(cc1Oc1ccc(-c3ccccc3)cc1)C(OP(=O)(N1CC1)N1CC1)CC2` (single isomer, unassigned) [Example 152], for which the concentration for half-maximal inhibition (IC50) in test [1] was 1400 nM; in test [2] (Homo sapiens, NCI-H460, 72 h) it was under 10 nM.

Take `O=C(c1cccc(Oc2c([N+](=O)[O-])ccc3c2CCC3OP(=O)(N2CC2)N2CC2)c1)N1CCC(F)(F)CC1` (stereo not shown) [Example 104]: the IC50 was 180 nM in test [1] and under 10 nM in test [2].

Take `Cn1cc(-c2cccc(Oc3c([N+](=O)[O-])ccc4c3CCC4OP(=O)(N3CC3)N3CC3)c2)cn1` (stereo not shown) [Example 300]: the IC50 in test [1] is 1890 nM; in test [2], under 10 nM.

In the case of `Cn1cnc2ccc(Oc3cc4c(cc3[N+](=O)[O-])CCC4OP(=O)(N3CC3)N3CC3)cc2c1=O` (stereo not shown) [Example 194], the IC50 in test [1] is 1290 nM; in test [2] (Homo sapiens, NCI-H460, 72 h) it was 10 to 50 nM.

`COc1ccc(Oc2c([N+](=O)[O-])ccc3c2CC[C@@H]3OP(=O)(N2CC2)N2CC2)cc1-c1ncccn1` [Example 294, (S)-4-(4-methoxy-3-(pyrimidin-2-yl)phenoxy)-5-nitro-2,3-dihydro-1H-inden-1-yl di(aziridin-1-yl)phosphinate]: the IC50 in test [1] was 1080 nM; in test [2] (Homo sapiens, NCI-H460, 72 h), under 10 nM.

On to `COc1cccc(Oc2c([N+](=O)[O-])ccc3c2CC[C@H]3OP(=O)(N2CC2)N2CC2)c1` [Example 448], for which the values for the IC50 in test [1] and in test [2] were 647 nM and under 10 nM, respectively.

With `O=C(c1cccc(Oc2c([N+](=O)[O-])ccc3c2CCC3OP(=O)(N2CC2)N2CC2)c1)N1CCCCC1` (single isomer, unassigned) [Example 69], the half-maximal inhibitory concentration (IC50) in test [1] was 573 nM; in test [2], under 10 nM.

Turning to `CC(C)(C)c1cncc(Oc2c([N+](=O)[O-])ccc3c2CCC3OP(=O)(N2CC2)N2CC2)c1` (racemic) [Example 324], the values for the 50% inhibitory concentration (IC50) in test [1] and in test [2] were 445 nM and under 10 nM, respectively.

Consider `O=[N+]([O-])c1ccc2c(c1Oc1cccc(-n3cc(F)cn3)c1)CCC2OP(=O)(N1CC1)N1CC1` (stereo not shown) [Example 82], for which the half-inhibitory concentration (IC50) in test [1] is 181 nM; in test [2] (Homo sapiens, NCI-H460, 72 h), under 10 nM.

As for `C[C@@H](OP(=O)(N1CC1)N1CC1)c1cc2cc(Oc3ccc4c(c3)CN(C)C4=O)c([N+](=O)[O-])cc2o1` [Example 564], the results for the IC50 in test [1] and in test [2] were 2690 nM and 10 to 50 nM, respectively.

As for `O=[N+]([O-])c1ccc2c(c1Oc1cccc(-c3cnc[nH]3)c1)CC[C@@H]2OP(=O)(N1CC1)N1CC1` [Example 362], the IC50 in test [1] was 1660 nM; in test [2] (Homo sapiens, NCI-H460, 72 h) it was under 10 nM.
